# Patent US11666640B2, “Glucose oxidase compositions as a neonate anticonvulsant” (PENN STATE RESEARCH FOUNDATION, priority 2018, dated 2023)
# Entries after “also recorded” stand apart in the source; their conditions may differ.
# How the values were obtained:
# [1] = test system: cultured cortical neurons; assay: Epileptiform burst activity in cultured cortical neurons (whole-cell patch-clamp); format: cell-based, mouse; conditions: CTZ 10 μM, 24 hrs, blocker 100 μM
# Protocol: Mouse cortical neurons were prepared from newborn C57BL/6 mice as previously described. Qi et al., “Cyclothiazide induces robust epileptiform activity in rat hippocampal neurons both in vitro and in vivo” The Journal Of Physiology 571:605-618 (2006). Briefly, the newborn mouse cerebral cortices were dissected out in ice-cold HEPES-buffered saline solution, washed and digested with 0.05% trypsin-EDTA at 37° C. for 20 min. After deactivation of trypsin with serum-containing medium, cells were centrifuged, resuspended, and seeded on a monolayer of cortical astrocytes at a density of 10,000 cells/cm^2 in 24-well plates. The neuronal culture medium contained MEM (500 ml, Invitrogen), 5% fetal bovine serum (Atlanta Biologicals), 10 ml B-27 supplement (Invitrogen), 100 mg NaHCO3, 2 mM Glutamax (Invitrogen), and 25 units/ml penicillin & streptomycin. AraC (4 μM, Sigma) was added to inhibit the excessive proliferation of astrocytes. Cell cultures were maintained in a 5% CO2-humidified incubator at 37° C. for 14-21 days.
# The cultured neurons were placed in the recording chamber with continuous perfusion of the bath solution consisting of (mM): 128 NaCl, 10 Glucose, 25 HEPES, 5 KCl, 2 CaCl2, 1 MgSO4, pH 7.3 adjusted with NaOH, and osmolarity ˜300 mOsm. For recording spontaneous firing under current clamp mode, pipettes were filled with an internal solution containing (in mM): 125 K-gluconate, 5 Na-phosphocreatine, 5 EGTA, 10 KCl, 10 HEPES, 4 Mg-ATP, 0.3 Na-GTP, 280-290 mOsm, pH 7.3 adjusted with KOH. Epileptiform activity in cultured neurons was induced either by 10 μM CTZ for 24 h, or 1 μM KA for 2 h, or 50 μM 4-AP for 2 h. The burst activity was defined as previously described. Qi et al., “Cyclothiazide induces robust epileptiform activity in rat hippocampal neurons both in vitro and in vivo” The Journal Of Physiology 571:605-618 (2006). In brief, at least five consecutive action potentials overlaying on top of the large depolarization shift (≥10 mV depolarization and ≥300 ms in duration).
# Cl− channels = assay: Cl− current recording in cultured cortical neurons; format: cell-based, mouse; conditions: blocker 100 μM
# hippocampal slices = assay: Field potential recording of epileptiform activity in hippocampal slices (CA3 pyramidal layer); format: cell-based, mouse; conditions: 100 μm (FIG. 10)
# CLC-3 Cl− channels = biological target: T1, CLC-3 Cl− channels (Mus musculus, UniProt P51791); assay: Voltage-dependent outward rectifying Cl− currents in CA3 pyramidal neurons of hippocampal slices; format: cell-based; conditions: P8-12 neonatal mice; 20 mM NaGcA, 10 mM Mg(GcA)2, 20 mM gluconic acid
# T1 construct: CA3 pyramidal neurons of hippocampal slices from neonatal mice; from tissue; host or cells: acute hippocampal slices (CA3 pyramidal neurons), C57BL/6 mice
# T1 sequence (P51791 1-818): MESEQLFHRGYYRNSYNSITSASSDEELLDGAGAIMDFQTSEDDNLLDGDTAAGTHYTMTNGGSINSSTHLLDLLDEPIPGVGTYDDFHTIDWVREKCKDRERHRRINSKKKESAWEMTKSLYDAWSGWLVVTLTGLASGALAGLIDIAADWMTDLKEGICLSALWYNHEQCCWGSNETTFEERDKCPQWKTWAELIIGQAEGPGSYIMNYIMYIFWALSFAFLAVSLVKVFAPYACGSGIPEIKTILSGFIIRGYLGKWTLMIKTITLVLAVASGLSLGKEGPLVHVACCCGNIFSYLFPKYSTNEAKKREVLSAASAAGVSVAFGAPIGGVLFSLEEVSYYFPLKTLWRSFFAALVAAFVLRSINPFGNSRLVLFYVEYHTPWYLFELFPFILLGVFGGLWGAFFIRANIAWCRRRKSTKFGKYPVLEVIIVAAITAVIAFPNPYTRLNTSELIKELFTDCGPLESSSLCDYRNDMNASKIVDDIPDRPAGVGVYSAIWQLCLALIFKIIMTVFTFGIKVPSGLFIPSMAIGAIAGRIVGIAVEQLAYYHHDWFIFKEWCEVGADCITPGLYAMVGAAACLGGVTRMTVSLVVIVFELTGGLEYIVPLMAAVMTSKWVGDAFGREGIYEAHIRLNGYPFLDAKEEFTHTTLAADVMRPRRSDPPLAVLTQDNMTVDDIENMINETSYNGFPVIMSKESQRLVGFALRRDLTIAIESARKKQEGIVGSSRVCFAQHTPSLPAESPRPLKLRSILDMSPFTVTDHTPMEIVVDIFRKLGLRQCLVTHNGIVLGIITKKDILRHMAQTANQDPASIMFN
# [2] = test system: KA induced neonatal seizure; assay: KA-induced neonatal seizure, in vivo EEG recording; parameters: species or system rat; conditions: for reduction of relative EEG power: last 30 min of a 2-hr recording period after KA injection, neonatal
# Protocol: For example, neonatal rats were administered gluconate to determine the effect on in vivo epileptic seizures in neonatal and adult animals. […] FIGS. 14A and 14B; Dzhala et al., “NKCC1 transporter facilitates seizures in the developing brain” Nature Medicine 11:1205-1213 (2005). […] FIGS. 14C and 14D.
# To test the in vivo anti-epilepsy effects of gluconate in neonatal and adult rodents, P8-12 Sprague-Dawley rats or 2-month old male C57BL/6 mice were deeply anesthetized with pentobarbital sodium (50 mg/kg for neonatal rat and 100 mg/kg for adult mice, intraperitoneal injection). Two stainless steel screws (1 mm in diameter) were inserted in the skull above the cortex as EEG recording electrodes, one ground electrode as well as one reference electrode were located +1.8 mm anterior to bregma, ±0.5 mm lateral to the midline, and 1 mm below the cortical surface. All electrodes were attached to a micro-connector and fixed onto the skull with dental cement. After surgery, neonatal rats were returned to their mothers and allowed to recover for 2 days prior to subsequent EEG recording. The adult mice were single housed in order to prevent damage of the implanted electrodes and allowed to recover at least 5 days before EEG recording.
# The baseline of EEG was recorded for 0.5-1 hr to allow the animal to adapt to the environment. Kainic acid (2 mg/kg) was administered intraperitoneally (i.p.) for neonatal epilepsy induction. D-gluconic acid sodium salt (2 g/kg) or 0.9% saline was injected i.p. 10 min after KA administration. Pentylenetetrazol (PTZ) was administered intraperitoneally for inducing a stable epileptic burst activity in adult mice, and D-gluconic acid sodium salt (1 g/kg and 2 g/kg) or 0.9% saline was injected i.p. 10 min before PTZ administration. Epileptiform activity was monitored for 1 hr after PTZ injection. Qian et al., “Epileptiform response of CA1 neurones to convulsant stimulation by cyclothiazide, kainic acid and pentylenetetrazol in anaesthetized rats” Seizure 20:312-319 (2011). After the experiment, animals were injected with diazepam to protect the animals from recurrent epilepsy.
# Power was calculated in 1-min time windows by integrating the power of dominant frequency bands from 1 to 100 Hz (EEG band).
# [3] = test system: GABAA-R reversal potential (EGABA); assay: Gramicidin-perforated whole-cell recording of GABAA-R reversal potential (EGABA) in CA3 pyramidal neurons; format: cell-based, mouse; conditions: for positive EGABA shift induced by 0 Mg2+ aCSF: neonatal CA3 neurons; for EGABA in 0 Mg2+ aCSF: neonatal P8-P9, 0 Mg2+ aCSF; for EGABA in 0 Mg2+ aCSF / EGABA in normal aCSF: bumetanide 10 μM, VU0240551 10 μM, NaGcA 20 mM; for EGABA in normal aCSF: neonatal P8-P9
# Protocol: To further test this idea, the GABAA-R reversal potential (EGABA), which governs GABA excitatory versus inhibitory function, was directly measured using gramicidin-perforated whole-cell recordings in neonatal mouse brain slices (e.g., P8-P9). As expected, epileptiform activity induced a large depolarizing shift in EGABA after treating hippocampal slices with 0 Mg^2+ aCSF for 1 h (aCSF: −59.2±2.0 mV, n=13; 0 Mg^2+: −48.2±1.1 mV, n=10). FIG. 16D. Treatment with bumetanide (Bum, 10 μM), a specific blocker for NKCC1 at low concentrations, induced a hyperpolarizing shift in EGABA (blue line) as compared to a control EGABA (dashed line). […]. […] Kaila et al., “Cation-chloride cotransporters in neuronal development, plasticity and disease” Nature Reviews. Neuroscience 15:637-654 (2014); Dzhala et al., “NKCC1 transporter facilitates seizures in the developing brain” Nature Medicine 11:1205-1213 (2005); and Loscher et al., “Cation-chloride cotransporters NKCC1 and KCC2 as potential targets for novel antiepileptic and antiepileptogenic treatments” Neuropharmacology 69:62-74 (2013). […] FIG. 16E, yellow line; Bum, −68.0±1.7 mV (n=9); 0 Mg^2++Bum, −50.2±1.4 mV (n=9); (p<0.002).
# [4] = test system: GABA-induced neuronal activity; assay: Cell-attached recording of spike firing elicited by isoguvacine in CA3 pyramidal neurons; format: cell-based, mouse; conditions: P8-9, isoguvacine 10 μM, 30 s
# Protocol: Besides EGABA, the effects of different drugs on GABA-induced neuronal activity during epileptogenesis were investigated in neonatal animals (e.g., P8-9). To accurately measure GABA-induced neuronal activity, cell-attached recordings monitored spike firing elicited by local application of the GABAA-R agonist isoguvacine (10 μM, 30 s). Tyzio et al., “Maternal oxytocin triggers a transient inhibitory switch in GABA signaling in the fetal brain during delivery” Science 314:1788-1792 (2006). […] FIG. 16K, control, (n=32). […] FIG. 16K, 0 Mg^2+ (n=19). […] FIG. 16K; 0 Mg^2++Bum (n=19); and 0 Mg^2++VU (n=21). […] FIG. 16K; 0 Mg^2++NaGcA (n=18).
# neonatal seizures = conditions: infant babies, clinical trial (Pressler et al.); cited from earlier work
molecule,measurement,setting,value
"O=C(O)c1cc([N+](=O)[O-])ccc1NCCCc1ccccc1 [NPPB, 5-Nitro-2-(3-phenylpropylamino) benzoic acid, reference compound]",epileptiform activity induced by CTZ,[1],significantly inhibited; also recorded: potently inhibited
same,Cl− currents (inhibition by classic Cl− channel blockers),Cl− channels,significantly suppressed; also recorded: inhibited
same,epileptic activity in neonatal hippocampal slices (other Cl− channel blockers),hippocampal slices,inhibit neonatal seizures
"O=C(O)c1cccnc1Nc1cccc(C(F)(F)F)c1 [NFA, niflumic acid, reference compound]",epileptic activity in neonatal hippocampal slices (other Cl− channel blockers),hippocampal slices,inhibit neonatal seizures
O=C(O)[C@H](O)[C@@H](O)[C@H](O)[C@H](O)CO [gluconic acid],Cl− current inhibition by gluconic acid with various counter ions,CLC-3 Cl− channels,equivalent Cl− current inhibition
CCCCNc1cc(C(=O)O)cc(S(N)(=O)=O)c1Oc1ccccc1 [bumetanide],epileptic seizure (burst) activity in EEG,"[2]; P10-12, KA 2 mg/kg i.p., drug i.p. 10 min after KA: NaGcA 2 g/kg, phenobarbital 25 mg/kg, bumetanide 2 mg/kg",not as potent as gluconate
same,reduction of relative EEG power,[2],54.3%
same,positive EGABA shift induced by 0 Mg2+ aCSF,[3],did not abolish
same,EGABA in 0 Mg2+ aCSF,[3],−50.2±1.4 mV
same,EGABA in normal aCSF,[3],−68.0±1.7 mV
same,spike activity elicited by isoguvacine after 0 Mg2+ treatment,[4],did not change
same,effect in treating neonatal seizure (clinical trial),neonatal seizures,very limited effect
same,side effects (clinical trial),neonatal seizures,severe side effects
magnesium gluconate,Cl− current inhibition by gluconic acid with various counter ions,CLC-3 Cl− channels,equivalent Cl− current inhibition
"CCC1(c2ccccc2)C(=O)NC(=O)NC1=O [phenobarbital, reference compound]",reduction of relative EEG power,[2],35.5%
Cc1csc(NC(=O)CSc2ccc(-c3ccccc3)nn2)n1 [VU0240551],positive EGABA shift induced by 0 Mg2+ aCSF,[3],no effect
same,EGABA in 0 Mg2+ aCSF,[3],−48.9±1.3 mV
same,EGABA in normal aCSF,[3],−60.8±1.9 mV
same,spike activity elicited by isoguvacine after 0 Mg2+ treatment,[4],did not change
"O=S(=O)([O-])c1cc(N=C=S)ccc1C=Cc1ccc(N=C=S)cc1S(=O)(=O)[O-].[Na+].[Na+] [DIDS, 4,4′-Diisothiocyanato-2,2′-stilbenedisulfonic acid disodium salt, reference compound]",epileptiform activity induced by CTZ,[1]; disodium salt,significantly inhibited; also recorded: potently inhibited
same,Cl− currents (inhibition by classic Cl− channel blockers),Cl− channels; disodium salt,significantly suppressed; also recorded: persistent inhibition
